This note sets out measurements from patent US20140038989A1, “TETRAHYDROPYRAZOLO [1,5-A] PYRIMIDINE AS ANTI-TUBERCULOSIS COMPOUNDS” (Glaxo Group Limited, priority 2011, published 2014).

The structures appear in SMILES notation. In brackets after ≈: the same amount, converted by molar mass. Bounds are passed on as bounds.

For the assay, the system named is Mycobacterium tuberculosis H37Rv. The experiment in a line: Mycobacterium tuberculosis H37Rv Inhibition Assay (Whole Cell Assay). It counts as cell-based. The settings on record: ATCC 25618 / H37Rv, H37Rv strain (ATCC25618), Middlebrook 7H9, six days at 37° C., resazurin fluorescence after 48 hours. (Resazurin is reduced to fluorescent resorufin, in cell work by metabolically active cells.)
By MIC is commonly meant the smallest concentration in the dilution series that meets the test's criterion for growth inhibition. In turn, `CCc1ccc([C@H]2C[C@@H](C(F)(F)F)n3ncc(C(=O)NCc4ccc(F)c(F)c4)c3N2)cc1` (relative stereo) [Example 16, Cis-N-[(3,4-difluorophenyl)methyl]-5-(4-ethylphenyl)-7-(trifluoromethyl)-4,5,6,7-tetrahydropyrazolo[1,5-a]pyrimidine-3-carboxamide] yielded an MIC not above 1 µM.

Compound `Cc1ccc(CNC(=O)c2cnn3c2N[C@@H](c2ccc(Br)cc2)C[C@H]3C(F)(F)F)cc1` (relative stereo) [Example 21, Cis-5-(4-bromophenyl)-N-(4-methylbenzyl)-7-(trifluoromethyl)-4,5,6,7-tetrahydropyrazolo[1,5-a]pyrimidine-3-carboxamide] registered an MIC not above 1 µM.

In turn, `CCc1ccc([C@H]2C[C@@H](C(F)(F)F)n3ncc(C(=O)NCc4ccc(C)n4C)c3N2)cc1` (relative stereo) [Example 72, Cis-N-((1,5-dimethyl-1H-pyrrol-2-yl)methyl)-5-(4-ethylphenyl)-7-(trifluoromethyl)-4,5,6,7-tetrahydropyrazolo[1,5-a]pyrimidine-3-carboxamide] registered an MIC not above 1 µM.

For the compound `CCc1ccc([C@H]2C[C@@H](C(F)(F)F)n3ncc(C(=O)NCc4ccccc4Cl)c3N2)cc1` (relative stereo) [Example 73, Cis-N-(2-chlorobenzyl)-5-(4-ethylphenyl)-7-(trifluoromethyl)-4,5,6,7-tetrahydropyrazolo[1,5-a]pyrimidine-3-carboxamide], the MIC was 1 to 2 µM (≈ 0.463 to 0.926 µg/mL).

In turn, `CCc1ccc([C@H]2C[C@@H](C(F)(F)F)n3ncc(C(=O)NCc4ccc(F)c(C)n4)c3N2)cc1` (relative stereo) [Example 77, Cis-5-(4-ethylphenyl)-N-((5-fluoro-6-methylpyridin-2-yl)methyl)-7-(trifluoromethyl)-4,5,6,7-tetrahydropyrazolo[1,5-a]pyrimidine-3-carboxamide] yielded an MIC of 1 to 2 µM (≈ 0.461 to 0.923 µg/mL).

`CCc1ccc([C@H]2C[C@@H](C(F)(F)F)n3ncc(C(=O)NCc4ccc(F)c(C)n4)c3N2)cc1` [Example 105, (5R,7S)-5-(4-ethylphenyl)-N-((5-fluoro-6-methylpyridin-2-yl)methyl)-7-(trifluoromethyl)-4,5,6,7-tetrahydropyrazolo[1,5-a]pyrimidine-3-carboxamide] displayed an MIC not above 1 µM.
